{"source": "patent US20240309014A1", "about": "“MACROCYCLIC COMPOUNDS AND USES THEREOF” (President and Fellows of Harvard College, priority 2017, published 2024)", "tested_on": "α-SMA expression in BJ normal human fibroblasts", "experiment": "α-SMA expression in BJ fibroblasts co-cultivated with FaDu cells", "type": "cell-based", "settings": "BJ cells co-cultured with FaDu for three days", "protocol": "FIG. 19A. BJ cells (normal human […] fibroblasts) were co-cultured with FaDu cells for three days in the absence (vehicle) or presence of A83-01, a potent selective TGF-β-R inhibitor, and the expression of α-SMA was analysed by immunofluorescence staining (red color). Samples were also stained with anti-pan-human cytokeratin (green color) for cancer cell staining and DAPI (blue color) for nuclear staining. FIGS. 19B-19E BJ cells were treated with Compound (1) (0.15 nmol/L in immunofluorescence staining data and indicated concentrations in western blot analysis data) and TGF-β for 2 days. FIGS. 19B-19E. Samples were stained with the indicated antibody (red color) and DAPI (blue color) for nuclear staining. FIG. 19E Western blot images and quantification of the images. […] FIGS. 19G and 19E BJ cells were pretreated with defactinib (1 μmol/L) and TGF-β for 2 days. The lens magnification used was x4 (FIGS. 19A, 19B, 19C, 19G, and 19H) or x40 (FIGS. 19D and 19E).\nThe expression of α-SMA was induced in BJ normal human fibroblasts upon co-cultivation with FaDu cells, and the expression was attenuated by treatment with A83-01, a potent selective inhibitor of the TGF-β-receptor (FIG. 19A)."}
{"smiles": "Cc1cccc(-c2nn(C(=S)Nc3ccccc3)cc2-c2ccnc3ccccc23)n1", "note": "[Compound A83-01]", "values": [{"measurement": "expression of α-SMA induced upon co-cultivation with FaDu cells", "result": "attenuated"}]}
